Results from patent US12435060B2, “Acylamino bridged heterocyclic compound, and composition and application thereof” (BEIJING SCITECH-MQ PHARMACEUTICALS LIMITED, priority 2019, dated 2025).

Test system: HT29 cells
Assay: Inhibition of cell necrosis (CCK8 method), induced programmed necrosis of HT29 cells
Format: cell-based
Settings: Homo sapiens, HT-29; rescue from necrosis induced by TNF-α 20 ng/mL, AT-406 1 μM, Z-VAD-FMK 20 μM; 16-20 hours; CCK-8, OD 450 nm
Protocol: Assay Example 2. Assay Method for Compounds Inhibiting Cell Necrosis (CCK8 Method)
In this assay example 2, under the condition of inducing programmed cell necrosis, different concentrations of the test compounds were added to test the IC50 of the rescue effect of the test compounds on the programmed necrosis.
• Compounds: Dissolved in DMSO to make a 10 mM solution; • TNF-α: The initial concentration was 100 μg/mL; • Z-VAD-FMK: Dissolved in DMSO to make a 10 mM solution; • AT-406: Dissolved in DMSO to make a 10 mM solution. I. Experimental Steps • 1) Compound dilution: All test compounds were dissolved in DMSO to prepare a 10 mM stock solution, and the first concentration gradient dilution of the test compounds was completed in DMSO. The gradient dilution factor was 4 times and 9 concentration gradients were made; A 40-fold overall dilution of all compounds was completed in the cell culture medium, and the resulting compound was 10× compound, which will be added to the wells of the 96-well plate containing cells, so that the final cell culture medium was 1× the designed final concentration. The general drug design is 9 concentration gradients, of which the highest final concentration is 25000 nM, the lowest concentration after 4-fold dilution of 9 concentrations is 0.38 nM, and the final concentration of DMSO in all wells is 0.25%. The compound dilution process is shown in FIG. 3. • 2) HT 29 cells in good growth condition were selected, trypsinized, the cells was collected by centrifugation, resuspended in McCOY's 5A complete medium (containing 10% FBS) and counted, and the number of cells and survival rate were recorded. • 3) Cells were inoculated to the 60 wells in the middle of the 96-well culture plate at a density of 12000 cells/80 μL/well, surrounding wells were filled with sterile water, and incubated overnight. • 4) 10 μL of the 10× compound diluted with the medium was added to the assay wells, 10 μL of McCOY's 5A complete medium containing 2.5% DMSO was added to the inducer-free wells and the control wells, mixed and shaked, and incubated for 30 minutes. • 5) Then 10 μL of inducer mixture (TNF-α, AT-406, Z-VAD-FMK with the final concentration of 20 ng/mL, 1 μM, 20 μM) was added into the assay wells and control wells. 10 μL McCOY's 5A complete medium was added to wells without inducer. Cells were cultured in an incubator with 5% CO2, at 37° C. • 6) After culturing for 16-20 hours, 10 μL of CCK-8 reagent was added to each well, and incubated for about 2 hours; • 7) The OD value was read at 450 nm on the multi-function plate reader. • 8) Data processing: Inhibition rate of necrosis (%)=100*(X−B)/(A−B) • A: The OD values of the wells without inducer (containing cells, CCK-8, without compound and inducer); • […]: OD values of assay wells (containing cells, CCK-8, compound, inducer); • B: OD values of control wells (containing cells, CCK-8, inducer, without compound). Then the value were imported into Graphpad Prism5 software for curve fitting and the IC50 values were calculated.

Row | SMILES | IC50 [µM]
1 | CC(C)(O)CCCOc1ccc(Cl)c(-c2ccnc(NC(=O)c3nnc(Cc4cc(F)cc(F)c4F)[nH]3)c2)c1 [Example 352, N-(4-(2-chloro-5-((4-hydroxy-4-methylpentyl)oxy)phenyl)pyridin-2-yl)-5-(2,3,5-trifluorobenzyl)-4H-1,2,4-triazole-3-carboxamide] | 0.1 to 1
2 | O=C(Nc1cc(-c2ccccc2)ccn1)c1nnc(Cc2ccccc2)[nH]1 [Example 1, 5-benzyl-N-(4-phenylpyridin-2-yl)-4H-1,2,4-triazole-3-carboxamide] | 1 to 10
3 | CC(C)(O)CCCOc1ccc(C(F)(F)F)c(-c2ccnc(NC(=O)c3nnc(Cc4ccccc4F)[nH]3)c2)c1 [Example 255, 5-(2-fluorobenzyl)-N-(4-(5-((4-hydroxy-4-methylpentyl)oxy)-2-(trifluoromethyl)phenyl)pyridin-2-yl)-4H-1,2,4-triazole-3-carboxamide] | ≤ 0.1
4 | COCCCOc1ccc(Cl)c(-c2ccnc(NC(=O)c3nnc(Cc4ccccc4F)[nH]3)c2)c1 [Example 396, 5-(2-fluorobenzyl)-N-(4-(2-chloro-5-(3-methoxypropoxy)phenyl)pyridin-2-yl)-4H-1,2,4-triazole-3-carboxamide] | ≤ 0.1
5 | COc1cc(Cc2nnc(C(=O)Nc3cc(-c4cc(OCCCC(C)(C)O)ccc4C)ccn3)[nH]2)ccc1F [Example 209, 5-(4-fluoro-3-methoxybenzyl)-N-(4-(5-((4-hydroxy-4-methylpentyl)oxy)-2-methylphenyl)pyridin-2-yl)-4H-1,2,4-triazole-3-carboxamide] | 0.1 to 1
6 | O=C(Nc1cc(-c2cccc3c2OCC3)ccn1)c1nnc(Cc2ccccc2)[nH]1 [Example 38, 5-benzyl-N-(4-(2,3-dihydrobenzofuran-7-yl)pyridin-2-yl)-4H-1,2,4-triazole-3-carboxamide] | 1 to 10
7 | O=C(Nc1cc(-c2cc(OCCC3CCOCC3)ccc2Cl)ncn1)c1nnc(CC2CCCCC2)[nH]1 [Example 473, N-(6-(2-chloro-5-(2-(tetrahydro-2H-pyran-4-yl)ethoxy)phenyl)pyrimidin-4-yl)-5-(cyclohexylmethyl)-4H-1,2,4-triazole-3-carboxamide] | ≤ 0.1
8 | Cc1ccc(OCC(C)(C)O)cc1-c1ccnc(NC(=O)c2nnc(CC3CCCC3)[nH]2)c1 [Example 118, 5-(cyclopentylmethyl)-N-(4-(5-(2-hydroxyl-2-methylpropoxy)-2-methylphenyl)pyridin-2-yl)-4H-1,2,4-triazole-3-carboxamide] | ≤ 0.1
9 | Cc1ccc(C(F)(F)F)cc1-c1ccnc(NC(=O)c2nnc(Cc3ccccc3)[nH]2)c1 [Example 36, 5-benzyl-N-(4-(2-methyl-5-(trifluoromethyl)phenyl)pyridin-2-yl)-4H-1,2,4-triazole-3-carboxamide] | 0.1 to 1
10 | Cc1cnc(NC(=O)c2nnc(Cc3ccccc3F)[nH]2)cc1-c1cc(OCC2CCOCC2)ccc1F [Example 331, N-(4-(2-fluoro-5-((tetrahydro-2H-pyran-4-yl)methoxy)phenyl)-5-methylpyridin-2-yl)-5-(2-fluorobenzyl)-4H-1,2,4-triazole-3-carboxamide] | 1 to 10
11 | Cc1cc(C#N)ccc1-c1ccnc(NC(=O)c2nnc(Cc3ccccc3)[nH]2)c1 [Example 12, 5-benzyl-N-(4-(4-cyano-2-methylphenyl)pyridin-2-yl)-4H-1,2,4-triazole-3-carboxamide] | 0.1 to 1
12 | O=C(Nc1cc(-c2cc(OCC3CCOCC3)ccc2Cl)c(Cl)cn1)c1nnc(Cc2ccccc2F)[nH]1 [Example 424, N-(5-chloro-4-(2-chloro-5-((tetrahydro-2H-pyran-4-yl)methoxy)phenyl)pyridin-2-yl)-5-(2-fluorobenzyl)-4H-1,2,4-triazole-3-carboxamide] | 0.1 to 1
13 | CCC(O)(CC)CCCOc1ccc(Cl)c(-c2ccnc(NC(=O)c3nnc(Cc4ccccc4)[nH]3)c2)c1 [Example 359, 5-benzyl-N-(4-(2-chloro-5-((4-ethyl-4-hydroxyhexyl)oxy)phenyl)pyridin-2-yl)-4H-1,2,4-triazole-3-carboxamide] | ≤ 0.1
14 | O=C(Nc1cc(-c2cc(OCCC3CCOCC3)ccc2C(F)(F)F)ncn1)c1nnc(Cc2ccccc2)[nH]1 [Example 458, 5-benzyl-N-(6-(5-(2-(tetrahydro-2H-pyran-4-yl)ethoxy)-2-(trifluoromethyl)phenyl)pyrimidin-4-yl)-4H-1,2,4-triazole-3-carboxamide] | ≤ 0.1
15 | Cc1ccc(OCCCCCO)cc1-c1ccnc(NC(=O)c2nnc(Cc3ccccc3)[nH]2)c1 [Example 153, 5-benzyl-N-(4-(5-((5-hydroxylpentyl)oxy)-2-methylphenyl)pyridin-2-yl)-4H-1,2,4-triazole-3-carboxamide] | ≤ 0.1
16 | COCCOc1cnc(C)c(-c2ccnc(NC(=O)c3nnc(Cc4ccccc4)[nH]3)c2)c1 [Example 129, 5-benzyl-N-(5-(2-methoxyethoxy)-2-methyl-[3,4′-bipyridin]-2′-yl)-4H-1,2,4-triazole-3-carboxamide] | 0.1 to 1
17 | Cc1ccc(OCCC2CCOCC2)cc1-c1cc(NC(=O)c2nnc(Cc3ccccc3F)[nH]2)ncc1Cl [Example 251, N-(5-chloro-4-(2-methyl-5-(2-(tetrahydro-2H-pyran-4-yl)ethoxy)phenyl)pyridin-2-yl)-5-(2-fluorobenzyl)-4H-1,2,4-triazole-3-carboxamide] | ≤ 0.1
18 | Cc1ccc(C2CC2)cc1-c1ccnc(NC(=O)c2nnc(Cc3ccccc3)[nH]2)c1 [Example 45, 5-benzyl-N-(4-(5-cyclopropyl-2-methylphenyl)pyridin-2-yl)-4H-1,2,4-triazole-3-carboxamide] | 0.1 to 1
19 | Cc1c(OCCCO)cccc1-c1ccnc(NC(=O)c2nnc(Cc3ccccc3)[nH]2)c1 [Example 97, 5-benzyl-N-(4-(3-(3-hydroxylpropoxy)-2-methylphenyl)pyridin-2-yl)-4H-1,2,4-triazole-3-carboxamide] | 0.1 to 1
20 | CCOCCOc1ccc(Cl)c(-c2ccnc(NC(=O)c3nnc(Cc4ccccc4)[nH]3)c2)c1 [Example 383, 5-benzyl-N-(4-(2-chloro-5-(2-ethoxyethoxy)phenyl)pyridin-2-yl)-4H-1,2,4-triazole-3-carboxamide] | ≤ 0.1
21 | CSCCCCOc1ccc(C)c(-c2ccnc(NC(=O)c3nnc(Cc4ccccc4)[nH]3)c2)c1 [Example 150, 5-benzyl-N-(4-(2-methyl-5-(4-(methylthio)butoxy)phenyl)pyridin-2-yl)-4H-1,2,4-triazole-3-carboxamide] | ≤ 0.1
22 | Cc1ccc(OCCCC2(O)CCCC2)cc1-c1ccnc(NC(=O)c2nnc(Cc3ccccc3)[nH]2)c1 [Example 163, 5-benzyl-N-(4-(5-(3-(1-hydroxycyclopentyl)propoxy)-2-methylphenyl)pyridin-2-yl)-4H-1,2,4-triazole-3-carboxamide] | ≤ 0.1
23 | Cc1ccc(C#N)cc1-c1ccnc(NC(=O)c2nnc(Cc3ccccc3)[nH]2)c1 [Example 35, 5-benzyl-N-(4-(5-cyano-2-methylphenyl)pyridin-2-yl)-4H-1,2,4-triazole-3-carboxamide] | ≤ 0.1
24 | O=C(Nc1cc(-c2cc(OCCC3CCOCC3)ccc2C(F)(F)F)ncn1)c1nnc(CC2CCCCC2)[nH]1 [Example 461, 5-(cyclohexylmethyl)-N-(6-(5-(2-(tetrahydro-2H-pyran-4-yl)ethoxy)-2-(trifluoromethyl)phenyl)pyrimidin-4-yl)-4H-1,2,4-triazole-3-carboxamide] | ≤ 0.1
25 | CC(C)(O)CCCOc1ccc(C(F)(F)F)c(-c2ccnc(NC(=O)c3nnc(Cc4ccccc4)[nH]3)c2)c1 [Example 194, 5-benzyl-N-(4-(5-((4-hydroxy-4-methylpentyl)oxy)-2-(trifluoromethyl)phenyl)pyridin-2-yl)-4H-1,2,4-triazole-3-carboxamide] | ≤ 0.1
26 | O=C(Nc1cc(-c2cc(OCC3CCOCC3)ccc2C(F)(F)F)ncn1)c1nnc(CC2CCCCC2)[nH]1 [Example 457, 5-(cyclohexylmethyl)-N-(6-(5-((tetrahydro-2H-pyran-4-yl)methoxy)-2-(trifluoromethyl)phenyl)pyrimidin-4-yl)-4H-1,2,4-triazole-3-carboxamide] | ≤ 0.1
